Patent US20230295197A1, “STAT5 and STAT6 Degraders and Uses Thereof” (REGENTS OF THE UNIVERSITY OF MICHICAN, priority 2022, published 2023)
Like-named read-outs stand apart in the source and are kept apart here.

What was measured:
STAT6 = target: T1, STAT6 (Homo sapiens, UniProt P42226); experiment: Immunoblotting (Western blot) analysis of STAT6 degradation efficiency of degraders in treated cells; format: cell-based
T1 construct: endogenous in cells; host or cells: MOLM-16, KU-812, SKNO1, MB231, L1236
T1 sequence (P42226 1-847): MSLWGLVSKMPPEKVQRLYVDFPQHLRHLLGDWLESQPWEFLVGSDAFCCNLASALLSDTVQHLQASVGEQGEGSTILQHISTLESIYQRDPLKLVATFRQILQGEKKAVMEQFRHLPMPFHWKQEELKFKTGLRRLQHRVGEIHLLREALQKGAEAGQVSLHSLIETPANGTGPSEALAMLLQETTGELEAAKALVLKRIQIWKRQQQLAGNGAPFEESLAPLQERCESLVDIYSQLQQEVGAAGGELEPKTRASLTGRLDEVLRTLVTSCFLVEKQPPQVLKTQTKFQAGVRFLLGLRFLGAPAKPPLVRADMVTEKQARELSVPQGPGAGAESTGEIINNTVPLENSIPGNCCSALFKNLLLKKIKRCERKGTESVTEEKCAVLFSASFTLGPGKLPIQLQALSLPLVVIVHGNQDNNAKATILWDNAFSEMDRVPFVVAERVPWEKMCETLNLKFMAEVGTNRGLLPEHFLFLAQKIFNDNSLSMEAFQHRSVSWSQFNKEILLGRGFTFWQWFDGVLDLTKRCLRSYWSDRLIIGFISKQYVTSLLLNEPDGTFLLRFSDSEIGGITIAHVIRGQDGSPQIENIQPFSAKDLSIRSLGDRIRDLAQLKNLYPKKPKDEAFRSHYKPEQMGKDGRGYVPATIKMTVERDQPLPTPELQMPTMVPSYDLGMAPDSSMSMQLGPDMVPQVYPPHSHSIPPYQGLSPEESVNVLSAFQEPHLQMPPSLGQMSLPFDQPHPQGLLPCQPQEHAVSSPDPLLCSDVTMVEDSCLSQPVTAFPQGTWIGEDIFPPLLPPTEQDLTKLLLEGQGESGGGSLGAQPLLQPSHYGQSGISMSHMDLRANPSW
Procedure, shortened: (§1)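 Treatment of cells with degraders at stated concentrations and exposure times comes first. Lysates are then equalised for total protein by BCA, and the proteins are separated, transferred and immunostained for STAT6 or STAT5 alongside GAPDH. Signal is quantified from infrared fluorescence.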

STAT5 = experiment: Immunoblotting (Western blot) analysis of STAT5 degradation efficiency of degraders in treated cells; format: cell-based
Procedure, shortened: as §1

[1] = MOLM-16 cells, numeric bound, read-out: DC50 S6 MOLM-16
[2] = MOLM-16 cells, numeric bound, read-out: DC50 S5 MOLM-16
[3] = KU-812 cells, read-out: DC50 S5 KU-812
[4] = MOLM-16 cells, class symbols, read-out: DC50 S5 MOLM-16
[5] = SKNO1 cells, read-out: DC50 S5 SKNO1
[6] = MB231 cells, read-out: DC50 S6 MB231

CC(C)(C)C(=O)OCOP(=O)(O)C(F)(F)c1ccc2sc(C(=O)N[C@H](C(=O)N3CCC[C@H]3C(=O)N(CCOCCOCC#Cc3cccc4c3CN(C3CCC(=O)NC3=O)C4=O)c3ccc4ccccc4c3)C(C)(C)C)cc2c1 (stereo partly drawn) [Compound 678, ((((2-(((2S)-1-((2S)-2-((2-(2-((3-(2-(2,6-dioxopiperidin-3-yl)-1-oxoisoindolin-4-yl)prop-2-yn-1-yl)oxy)ethoxy)ethyl)(naphthalen-2-yl)carbamoyl)pyrrolidin-1-yl)-3,3-dimethyl-1-oxobutan-2-yl)carbamoyl)benzo[b]thiophen-5-yl)difluoromethyl)(hydroxy)phosphoryl)oxy)methyl pivalate]
DC50 (STAT6; [1]): > 300 nM
DC50 (STAT5; [2]): > 300 nM

CC(C)(C)[C@H](NC(=O)c1cc2cc(C(F)(F)P(=O)(O)O)ccc2s1)C(=O)N1CCC[C@H]1C(=O)N(CCC(=O)NCCCC#Cc1cccc2c1CN(C1CCC(=O)NC1=O)C2=O)c1ccc2ccccc2c1 (stereo partly drawn) [Compound 656, ((2-(((2S)-1-((2S)-2-((3-((5-(2-(2,6-dioxopiperidin-3-yl)-1-oxoisoindolin-4-yl)pent-4-yn-1-yl)amino)-3-oxopropyl)(naphthalen-2-yl)carbamoyl)pyrrolidin-1-yl)-3,3-dimethyl-1-oxobutan-2-yl)carbamoyl)benzo[b]thiophen-5-yl)difluoromethyl)phosphonic acid]
DC50 (STAT6; [1]): > 300 nM
DC50 (STAT5; [3]): 100 to 1000 nM
DC50 (STAT5; [4]): < 100 nM
DC50 (STAT5; [5]): 100 to 1000 nM

CC(C)(C)[C@H](NC(=O)c1cc2cc(C(F)(F)P(=O)(O)O)ccc2s1)C(=O)N1CCC[C@H]1C(=O)N(CCC(=O)NCCCC#Cc1cccc2c1CN(C1CCC(=O)NC1=O)C2=O)c1ccc2occc2c1 (stereo partly drawn) [Compound 661, ((2-(((2S)-1-((2S)-2-(benzofuran-5-yl(3-((5-(2-(2,6-dioxopiperidin-3-yl)-1-oxoisoindolin-4-yl)pent-4-yn-1-yl)amino)-3-oxopropyl)carbamoyl)pyrrolidin-1-yl)-3,3-dimethyl-1-oxobutan-2-yl)carbamoyl)benzo[b]thiophen-5-yl)difluoromethyl)phosphonic acid]
DC50 (STAT6; [1]): > 300 nM
DC50 (STAT5; [3]): 100 to 1000 nM
DC50 (STAT5; [4]): < 100 nM
DC50 (STAT5; [5]): 100 to 1000 nM

CN(CCCC#Cc1cccc2c1CN(C1CCC(=O)NC1=O)C2=O)C(=O)CCN(C(=O)[C@@H]1CCCN1C(=O)[C@@H](NC(=O)c1cc2cc(C(F)(F)P(=O)(O)OCOC(=O)C(C)(C)C)ccc2s1)C(C)(C)C)c1ccc2occc2c1 (stereo partly drawn) [Compound 672, ((((2-(((2S)-1-((2S)-2-(benzofuran-5-yl(3-((5-(2-(2,6-dioxopiperidin-3-yl)-1-oxoisoindolin-4-yl)pent-4-yn-1-yl)(methyl)amino)-3-oxopropyl)carbamoyl)pyrrolidin-1-yl)-3,3-dimethyl-1-oxobutan-2-yl)carbamoyl)benzo[b]thiophen-5-yl)difluoromethyl)(hydroxy)phosphoryl)oxy)methyl pivalate]
DC50 (STAT6; [1]): > 300 nM
DC50 (STAT5; [4]): < 100 nM

CC(C)(C)[C@H](NC(=O)c1cc2cc(C(F)(F)P(=O)(O)O)ccc2s1)C(=O)N1CCC[C@H]1C(=O)N(CCC(=O)N1CC(CCC#Cc2cccc3c2CN(C2CCC(=O)NC2=O)C3=O)C1)c1ccc(Br)cc1 (stereo partly drawn) [Compound 666, ((2-(((2S)-1-((2S)-2-((4-bromophenyl)(3-(3-(4-(2-(2,6-dioxopiperidin-3-yl)-1-oxoisoindolin-4-yl)but-3-yn-1-yl)azetidin-1-yl)-3-oxopropyl)carbamoyl)pyrrolidin-1-yl)-3,3-dimethyl-1-oxobutan-2-yl)carbamoyl)benzo[b]thiophen-5-yl)difluoromethyl)phosphonic acid]
DC50 (STAT6; [1]): > 300 nM
DC50 (STAT5; [3]): 1000 to 10000 nM
DC50 (STAT5; [2]): > 300 nM
DC50 (STAT5; [5]): 1000 to 10000 nM

CC(C)(C)[C@H](NC(=O)c1cc2cc(C(F)(F)P(=O)(O)O)ccc2s1)C(=O)N1CCC[C@H]1C(=O)N(CCC(=O)NCCCC#Cc1cccc2c1CN(C1CCC(=O)NC1=O)C2=O)c1ccc(-c2ccccc2)cc1 (stereo partly drawn) [Compound 663, ((2-(((2S)-1-((2S)-2-([1,1′-biphenyl]-4-yl(3-((5-(2-(2,6-dioxopiperidin-3-yl)-1-oxoisoindolin-4-yl)pent-4-yn-1-yl)amino)-3-oxopropyl)carbamoyl)pyrrolidin-1-yl)-3,3-dimethyl-1-oxobutan-2-yl)carbamoyl)benzo[b]thiophen-5-yl)difluoromethyl)phosphonic acid]
DC50 (STAT6; [1]): > 300 nM
DC50 (STAT5; [3]): 1000 to 10000 nM
DC50 (STAT5; [2]): > 300 nM
DC50 (STAT5; [5]): 1000 to 10000 nM

CN(C(=O)[C@@H]1C[C@@H](OCC(=O)NCCCCCCC#Cc2cccc3c2CN(C2CCC(=O)NC2=O)C3=O)CN1C(=O)[C@@H](NC(=O)c1cc2cc(C(F)(F)P(=O)(O)O)ccc2s1)C(C)(C)C)c1ccc(Br)cc1 (stereo partly drawn) [Compound 413, ((2-(((2S)-1-((2S,4R)-2-((4-bromophenyl)(methyl)carbamoyl)-4-(2-((8-(2-(2,6-dioxopiperidin-3-yl)-1-oxoisoindolin-4-yl)oct-7-yn-1-yl)amino)-2-oxoethoxy)pyrrolidin-1-yl)-3,3-dimethyl-1-oxobutan-2-yl)carbamoyl)benzo[b]thiophen-5-yl)difluoromethyl)phosphonic acid]
DC50 (STAT6; L1236 cells, read-out: DC50 S6 L1236): > 10000 nM
DC50 (STAT6; [6]): > 10000 nM
DC50 (STAT5; [5]): > 10000 nM

CC(C)(C)[C@H](NC(=O)c1cc2cc(C(F)(F)P(=O)(O)O)ccc2s1)C(=O)N1CCC[C@H]1C(=O)N1C[C@@H](Oc2ccccc2)C[C@H]1C(=O)NCCCC#Cc1cccc2c1CN(C1CCC(=O)NC1=O)C2=O (stereo partly drawn) [Compound 658, ((2-(((2S)-1-((2S)-2-((2S,4S)-2-((5-(2-(2,6-dioxopiperidin-3-yl)-1-oxoisoindolin-4-yl)pent-4-yn-1-yl)carbamoyl)-4-phenoxypyrrolidine-1-carbonyl)pyrrolidin-1-yl)-3,3-dimethyl-1-oxobutan-2-yl)carbamoyl)benzo[b]thiophen-5-yl)difluoromethyl)phosphonic acid]
DC50 (STAT6; [1]): > 300 nM
DC50 (STAT5; [2]): > 300 nM

CN(CCCC#Cc1cccc2c1CN(C1CCC(=O)NC1=O)C2=O)C(=O)CCN(C(=O)[C@@H]1CCCN1C(=O)[C@@H](NC(=O)c1cc2cc(C(F)(F)P(=O)(O)OCOC(=O)C(C)(C)C)ccc2s1)C(C)(C)C)c1ccc2ccccc2c1 (stereo partly drawn) [Compound 673, ((((2-(((2S)-1-((2S)-2-((3-((5-(2-(2,6-dioxopiperidin-3-yl)-1-oxoisoindolin-4-yl)pent-4-yn-1-yl)(methyl)amino)-3-oxopropyl)(naphthalen-2-yl)carbamoyl)pyrrolidin-1-yl)-3,3-dimethyl-1-oxobutan-2-yl)carbamoyl)benzo[b]thiophen-5-yl)difluoromethyl)(hydroxy)phosphoryl)oxy)methyl pivalate]
DC50 (STAT6; [1]): > 300 nM
DC50 (STAT5; [4]): < 100 nM

O=C(CCN(C(=O)CN1CCCC[C@H](NC(=O)c2cc3cc(C(F)(F)P(=O)(O)O)ccc3s2)C1=O)c1ccc(Br)cc1)NCCCC#Cc1cccc2c1CN(C1CCC(=O)NC1=O)C2=O (stereo partly drawn) [Compound 664, ((2-(((3S)-1-(2-((4-bromophenyl)(3-((5-(2-(2,6-dioxopiperidin-3-yl)-1-oxoisoindolin-4-yl)pent-4-yn-1-yl)amino)-3-oxopropyl)amino)-2-oxoethyl)-2-oxoazepan-3-yl)carbamoyl)benzo[b]thiophen-5-yl)difluoromethyl)phosphonic acid]
DC50 (STAT6; [1]): > 300 nM
DC50 (STAT5; [2]): > 300 nM

CC(C)(C)[C@H](NC(=O)c1cc2cc(C(F)(F)P(=O)(O)O)ccc2s1)C(=O)N1CCC[C@H]1C(=O)N(CCC(=O)NCCCCCCCCC#Cc1cccc2c1CN(C1CCC(=O)NC1=O)C2=O)c1ccc(Br)cc1 (stereo partly drawn) [Compound 403, ((2-(((2S)-1-((2S)-2-((4-bromophenyl)(3-((10-(2-(2,6-dioxopiperidin-3-yl)-1-oxoisoindolin-4-yl)dec-9-yn-1-yl)amino)-3-oxopropyl)carbamoyl)pyrrolidin-1-yl)-3,3-dimethyl-1-oxobutan-2-yl)carbamoyl)benzo[b]thiophen-5-yl)difluoromethyl)phosphonic acid]
DC50 (STAT6; [6]): > 10000 nM
DC50 (STAT6; MOLM-16 cells, class symbols, read-out: DC50 S6 MOLM-16): > 10000 nM
DC50 (STAT5; [3]): > 10000 nM
DC50 (STAT5; [4]): 1000 to 10000 nM
